Key:
LPCAT [1] = test: LPCAT acyl-CoA substrate specificity, linseed microsomal membranes; format: biochemical; settings: for Percentage incorporation in comparison with the incorporation of oleic acid: 20 nmol acyl-CoA, sn-1-palmitolysophosphatidylcholine, DTNB assay
Procedure: (§1) All the procedures were carried out at 4° C. The cotyledons of maturing sunflower seeds and linseed were harvested approximately 10 days after anthesis and suspended in 0.1 M sodium phosphate buffer (pH 7.2), comprising 0.33 M sucrose and 0.1% BSA (free from fatty acids). After comminution in a glass homogenizer, the homogenate was centrifuged for 30 minutes at 20 000×g. The supernatant was filtered through one layer of Miracloth and centrifuged for 90 minutes in an ultracentrifuge at 100 000×g. The pelleted microsomal membranes were washed with 0.1 M sodium phosphate buffer (pH 7.2) and resuspended in a small volume of buffer, using a glass homogenizer. The microsomal membrane preparations were either immediately processed or stored at −80° C.
(§2) LPCAT activity was determined in a continuous spectraphotometric assay in which 5,5-dithiobis-2-nitrobenzoate (DTNB) was used, and the change in absorption at 409 nm and 25° C. was monitored. The assay comprised sn-1-palmitolysophosphatidylcholine (30 nmol) as acyl acceptor, DTNB (50 nmol) and 20 nmol of one of the following acyl-CoAs: myristoyl-CoA (14:0-CoA), palmitoyl-CoA (16:0-CoA), palmitoleoyl-CoA (16:1-CoA), stearoyl-CoA (18:0-CoA), oleoyl-CoA (18:1-CoA), linoleoyl-CoA (18:2-CoA), dihomo-gamma-linolenyl-CoA (20:3-CoA) or arachidonyl-CoA (20:4-CoA) in 1 ml of 0.1 M phosphate buffer, pH 7.2. The reaction was started by addition of microsomal membrane preparation. The amount of microsomal membrane preparation added was 5 μg (Mortierella and sunflower) or 30 μg (linseed).

GPAT [2] = test: GPAT acyl-CoA substrate specificity, sunflower microsomal membranes; format: biochemical; settings: for Percentage incorporation in comparison with the incorporation of oleic acid: 0.2 mM acyl-CoA, 5 mM [14C] G3P, 5 minutes
Procedure: as §1
(§3) The specificity of the GPAT was studied to verify whether the enzyme has a preference for certain acyl-CoAs, in particular to determine whether the GPAT from oil seed plants converts LCPUFA-CoAs. Microsomal membranes were incubated with 0.5 mM (Mortierella) or 0.2 mM (sunflower and linseed) of one of the following acyl-CoAs: myristoyl-CoA (14:0-CoA), palmitoyl-CoA (16:0-CoA), palmitoleoyl-CoA (16:1-CoA), stearoyl-CoA (18:0-CoA), oleoyl-CoA (18:1-CoA), linoleoyl-CoA (18:2-CoA), dihomo-gamma-linolenoyl-CoA (20:3-CoA) or arachidonyl-CoA (20:4-CoA) and 5 mM [^14C] G3P. Microsomal membranes (equivalent to 50 μg of protein in the case of sunflower and Mortierella and 150 μg of protein in the case of linseed) were added to the reaction mixture in order to start the reaction. After incubation for 5 minutes, the lipids were extracted by the method of Bligh & Dyer, and the radioactivity incorporated in complex lipids was determined.

GPAT [3] = test: GPAT acyl-CoA substrate specificity, Mortierella microsomal membranes; format: biochemical, Mortierella alpina; settings: for Percentage incorporation in comparison with the incorporation of oleic acid: Mortierella GPAT, 0.5 mM acyl-CoA, 5 mM [14C] G3P, 5 minutes
Procedure: (§4) Mortierella cultures were harvested after 5 days and placed on ice. All further procedures were carried out at 4° C. The mycelium was suspended in 0.1 M sodium phosphate buffer (pH 7.2), comprising 0.33 M sucrose, 0.1% BSA (free from fatty acids), 1000 units of catalase/ml and 1 mM Pefabloc. The following steps were carried out as described under “preparations of microsomal membranes from cotyledons of maturing seeds of sunflower and linseed”.
as §3

LPAAT [4] = test: LPAAT acyl-CoA substrate specificity, Mortierella microsomal membranes; format: biochemical, Mortierella alpina; settings: for Percentage incorporation in comparison with the incorporation of oleic acid: Mortierella LPAAT, 20 nmol acyl-CoA, sn-1-oleoyl-lysophosphatidic acid, DTNB assay
Procedure: as §4
(§5) The specificity of the LPAAT was studied in order to verify whether the enzyme has a preference for certain acyl-CoAs, in particular to determine whether the LPAAT from oil seed plants converts LCPUFA-CoAs. […] The assay comprised sn-1-oleoyl-lysophosphatidic acid (30 nmol), DTNB (50 nmol) and 20 nmol of one of the following acyl-CoAs: palmitoyl-CoA (16:0-CoA), stearoyl-CoA (18:0-CoA), oleoyl-CoA (18:1-CoA), linoleoyl-CoA (18:2-CoA), dihomo-gamma-linolenyl-CoA (20:3-CoA) or arachidonyl-CoA (20:4-CoA) in 1 ml of 0.1 M phosphate buffer, pH 7.2. […] Microsomal membranes (equivalent to 10 μg of protein in the case of Mortierella and 40 μg of protein in the case of sunflower and linseed) were added to the reaction mixture in order to start the reaction.

LPCAT [5] = test: LPCAT acyl-CoA substrate specificity, Mortierella microsomal membranes; format: biochemical, Mortierella alpina; settings: for Percentage incorporation in comparison with the incorporation of oleic acid: Mortierella LPCAT, 20 nmol acyl-CoA, sn-1-palmitolysophosphatidylcholine, DTNB assay
Procedure: as §4, §2

LPAAT [6] = test: LPAAT acyl-CoA substrate specificity, linseed microsomal membranes; format: biochemical; settings: for Percentage incorporation in comparison with the incorporation of oleic acid: 20 nmol acyl-CoA, sn-1-oleoyl-lysophosphatidic acid, DTNB assay
Procedure: as §1, §5

LPAAT [7] = test: LPAAT acyl-CoA substrate specificity, sunflower microsomal membranes; format: biochemical; settings: for Percentage incorporation in comparison with the incorporation of oleic acid: 20 nmol acyl-CoA, sn-1-oleoyl-lysophosphatidic acid, DTNB assay
Procedure: as §1, §5

LPCAT [8] = test: LPCAT acyl-CoA substrate specificity, sunflower microsomal membranes; format: biochemical; settings: for Percentage incorporation in comparison with the incorporation of oleic acid: 20 nmol acyl-CoA, sn-1-palmitolysophosphatidylcholine, DTNB assay
Procedure: as §1, §2

GPAT [9] = test: GPAT acyl-CoA substrate specificity, linseed microsomal membranes; format: biochemical; settings: for Percentage incorporation in comparison with the incorporation of oleic acid: 0.2 mM acyl-CoA, 5 mM [14C] G3P, 5 minutes
Procedure: as §1, §3

SMILES | LPCAT activity (in words) (LPCAT [1]) | Percentage incorporation in comparison with the incorporation of oleic acid (LPCAT [1]) [%] | Percentage incorporation in comparison with the incorporation of oleic acid (GPAT [2]) [%] | Percentage incorporation in comparison with the incorporation of oleic acid (GPAT [3]) [%] | Percentage incorporation in comparison with the incorporation of oleic acid (LPAAT [4]) [%] | Percentage incorporation in comparison with the incorporation of oleic acid (LPCAT [5]) [%] | Percentage incorporation in comparison with the incorporation of oleic acid (LPAAT [6]) [%] | Percentage incorporation in comparison with the incorporation of oleic acid (LPAAT [7]) [%] | Percentage incorporation in comparison with the incorporation of oleic acid (LPCAT [8]) [%] | Rate of the incorporation of oleic acid (GPAT [9]) [nmol/min/mg protein] | Percentage incorporation in comparison with the incorporation of oleic acid (GPAT [9]) [%] | Rate of the incorporation of oleic acid (LPAAT [6]) [nmol/min/mg protein] | Rate of the incorporation of oleic acid (LPCAT [1]) [nmol/min/mg protein] | Rate of the incorporation of oleic acid (GPAT [2]) [nmol/min/mg protein] | Rate of the incorporation of oleic acid (LPAAT [7]) [nmol/min/mg protein] | Rate of the incorporation of oleic acid (LPCAT [8]) [nmol/min/mg protein] | Rate of the incorporation of oleic acid (GPAT [3]; Mortierella alpina GPAT) [nmol/min/mg protein] | Rate of the incorporation of oleic acid (LPAAT [4]; Mortierella alpina LPAAT) [nmol/min/mg protein] | Rate of the incorporation of oleic acid (LPCAT [5]; Mortierella alpina LPCAT) [nmol/min/mg protein] | Percentage incorporation in comparison with the incorporation of oleic acid (LPCAT [8]; listed as SSA Palmitoyl-CoA) [%]
CCCCC/C=C\C/C=C\C/C=C\CCCCCCC(=O)SCCNC(=O)CCNC(=O)[C@H](O)C(C)(C)COP(=O)(O)OP(=O)(O)OC[C@H]1O[C@@H](n2cnc3c(N)ncnc32)[C@H](O)[C@@H]1OP(=O)(O)O [20:3-CoA, dihomo-gamma-linolenoyl-CoA] | no LPCAT activity was detected | 0 | 55 | 80 | 65 | 85 | – | – | – | – | – | – | – | – | – | – | – | – | – | –
CCCCCC/C=C\CCCCCCCC(=O)SCCNC(=O)CCNC(=O)[C@H](O)C(C)(C)COP(=O)(O)OP(=O)(O)OC[C@H]1O[C@@H](n2cnc3c(N)ncnc32)[C@H](O)[C@@H]1OP(=O)(O)O [Palmitololeoyl-CoA, palmitoleoyl-CoA] | – | 180 | – | – | 70 | 60 | 140 | 140 | 90 | – | – | – | – | – | – | – | – | – | – | –
CCCCCCCC/C=C\CCCCCCCC(=O)SCCNC(=O)CCNC(=O)[C@H](O)C(C)(C)COP(=O)(O)OP(=O)(O)OC[C@H]1O[C@@H](n2cnc3c(N)ncnc32)[C@H](O)[C@@H]1OP(=O)(O)O [Oleoyl-CoA, oleoyl-CoA] | converted equally efficiently | 100 | 100 | 100 | 100 | 100 | 100 | 100 | 100 | 6 | 100 | 25 | 9 | 13 | 28 | 360 | 30 | 51 | 350 | –
CCCCC/C=C\C/C=C\CCCCCCCC(=O)SCCNC(=O)CCNC(=O)[C@H](O)C(C)(C)COP(=O)(O)OP(=O)(O)OC[C@H]1O[C@@H](n2cnc3c(N)ncnc32)[C@H](O)[C@@H]1OP(=O)(O)O [Linoleoyl-CoA, linoleoyl-CoA] | converted equally efficiently | 100 | 85 | 90 | 90 | 40 | 120 | 250 | 120 | – | 90 | – | – | – | – | – | – | – | – | –
CCCCCCCCCCCCCCCCCC(=O)SCCNC(=O)CCNC(=O)[C@H](O)C(C)(C)COP(=O)(O)OP(=O)(O)OC[C@H]1O[C@@H](n2cnc3c(N)ncnc32)[C@H](O)[C@@H]1OP(=O)(O)O [Stearoyl-CoA, stearoyl-CoA] | – | 15 | 40 | 50 | 36 | 10 | 30 | 14 | 18 | – | 65 | – | – | – | – | – | – | – | – | –
CCCCCCCCCCCCCC(=O)SCCNC(=O)CCNC(=O)[C@H](O)C(C)(C)COP(=O)(O)OP(=O)(O)OC[C@H]1O[C@@H](n2cnc3c(N)ncnc32)[C@H](O)[C@@H]1OP(=O)(O)O [Myristoyl-CoA, myristoyl-CoA] | – | 0 | 57 | – | 55 | 0 | 30 | 16 | 1 | – | 100 | – | – | – | – | – | – | – | – | –
CCCCCCCCCCCCCCCC(=O)SCCNC(=O)CCNC(=O)[C@H](O)C(C)(C)COP(=O)(O)OP(=O)(O)OC[C@H]1O[C@@H](n2cnc3c(N)ncnc32)[C@H](O)[C@@H]1OP(=O)(O)O [Palmitoyl-CoA, palmitoyl-CoA] | – | 5 | 64 | 66 | 40 | 25 | 25 | 15 | – | – | 90 | – | – | – | – | – | – | – | – | 13
CCCCC/C=C\C/C=C\C/C=C\C/C=C\CCCC(=O)SCCNC(=O)CCNC(=O)[C@H](O)C(C)(C)COP(=O)(O)OP(=O)(O)OC[C@H]1O[C@@H](n2cnc3c(N)ncnc32)[C@H](O)[C@@H]1OP(=O)(O)O [Arachidonoyl-CoA, arachidonyl-CoA] | no LPCAT activity was detected | 0 | 23 | 75 | 65 | 90 | 19 | 18 | 4 | – | 5 | – | – | – | – | – | – | – | – | –

— patent US8354569B2, “Plant acyltransferases specific for long-chained, multiply unsaturated fatty acids” (University of Bristol, priority 2003, dated 2013)
